Results: ChEMBL document CHEMBL5226290, “Rational design of SphK inhibitors using crystal structures aided by computer” (Eur J Med Chem, 2021)
Blank lines part the entries; values can stand above or below the molecule they belong to.

Legend:
[1] = molecular target: T1, Sphingosine kinase 2 (Homo sapiens, UniProt Q9NRA0); experiment: Inhibition of SphK2 (unknown origin) assessed as inhibition constant
T1 sequence (Q9NRA0 whole entry): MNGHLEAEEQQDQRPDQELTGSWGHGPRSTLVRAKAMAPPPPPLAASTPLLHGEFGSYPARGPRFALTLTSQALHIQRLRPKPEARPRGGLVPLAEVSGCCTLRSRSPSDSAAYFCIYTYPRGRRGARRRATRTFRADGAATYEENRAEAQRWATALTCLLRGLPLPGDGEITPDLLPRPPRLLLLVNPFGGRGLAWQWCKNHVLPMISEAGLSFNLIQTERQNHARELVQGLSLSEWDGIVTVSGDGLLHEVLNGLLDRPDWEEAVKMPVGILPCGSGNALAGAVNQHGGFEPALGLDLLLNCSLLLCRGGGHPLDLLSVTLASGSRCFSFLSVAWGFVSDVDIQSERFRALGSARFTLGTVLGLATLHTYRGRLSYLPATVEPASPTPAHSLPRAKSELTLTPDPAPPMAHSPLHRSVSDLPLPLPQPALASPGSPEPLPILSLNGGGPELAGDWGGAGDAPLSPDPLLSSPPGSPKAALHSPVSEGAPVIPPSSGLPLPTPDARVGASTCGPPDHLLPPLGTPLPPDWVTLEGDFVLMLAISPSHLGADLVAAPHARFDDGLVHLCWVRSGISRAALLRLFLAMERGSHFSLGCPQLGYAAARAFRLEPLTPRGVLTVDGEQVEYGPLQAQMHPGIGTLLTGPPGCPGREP

[2] = molecular target: T2, Sphingosine kinase 1 (Homo sapiens, UniProt Q9NYA1); experiment: Inhibition of SphK1 (unknown origin) assessed as inhibition constant
[3] = molecular target: T1, Sphingosine kinase 2; experiment: Inhibition of recombinant GST-tagged SphK2 (unknown origin) (1 to 618 residues) expressed in baculovirus using sphingosine as substrate incubated for 1 hr in presence of ATP by electrophoretic mobility shift assay
[4] = molecular target: T2, Sphingosine kinase 1; experiment: Inhibition of recombinant GST-tagged SphK1 (unknown origin) (1 to 384 residues) expressed in baculovirus using sphingosine as substrate incubated for 1 hr in presence of ATP by electrophoretic mobility shift assay
[5] = molecular target: T1, Sphingosine kinase 2; experiment: Inhibition of SphK2 (unknown origin)
[6] = molecular target: T2, Sphingosine kinase 1; experiment: Inhibition of SphK1 (unknown origin)
[7] = molecular target: T2, Sphingosine kinase 1; experiment: Inhibition of SphK1 (unknown origin) using ATP as substrate preincubated for 40 mins followed by substrate addition and measured after 5 mins by spectrophotometric analysis
[8] = molecular target: T2, Sphingosine kinase 1; experiment: Inhibition of recombinant SphK1 (unknown origin) using NBD-sphingosine as substrate in presence of ATP by fluorescence plate reader analysis
[9] = molecular target: T1, Sphingosine kinase 2; experiment: Inhibition of recombinant SphK2 (unknown origin) using NBD-sphingosine as substrate in presence of ATP by fluorescence plate reader analysis
[10] = molecular target: T1, Sphingosine kinase 2; experiment: Inhibition of SphK2 (unknown origin) using ATP as substrate preincubated for 40 mins followed by substrate addition and measured after 5 mins by spectrophotometric analysis
[11] = molecular target: Sphingosine kinase 1 (Mus musculus, UniProt Q8CI15); experiment: Inhibition of recombinant mouse SphK1 expressed in baculovirus infected Sf9 cells using D-erythro-sphingosine and [gamma-32P]ATP as substrate incubated for 30 mins by liquid scintillation counting analysis
[12] = molecular target: T3, Sphingosine kinase 2 (Mus musculus, UniProt Q9JIA7); experiment: Inhibition of recombinant mouse SphK2 expressed in baculovirus infected Sf9 cells using D-erythro-sphingosine and [gamma-32P]ATP as substrate incubated for 30 mins by liquid scintillation counting analysis
T3 sequence (Q9JIA7 whole entry): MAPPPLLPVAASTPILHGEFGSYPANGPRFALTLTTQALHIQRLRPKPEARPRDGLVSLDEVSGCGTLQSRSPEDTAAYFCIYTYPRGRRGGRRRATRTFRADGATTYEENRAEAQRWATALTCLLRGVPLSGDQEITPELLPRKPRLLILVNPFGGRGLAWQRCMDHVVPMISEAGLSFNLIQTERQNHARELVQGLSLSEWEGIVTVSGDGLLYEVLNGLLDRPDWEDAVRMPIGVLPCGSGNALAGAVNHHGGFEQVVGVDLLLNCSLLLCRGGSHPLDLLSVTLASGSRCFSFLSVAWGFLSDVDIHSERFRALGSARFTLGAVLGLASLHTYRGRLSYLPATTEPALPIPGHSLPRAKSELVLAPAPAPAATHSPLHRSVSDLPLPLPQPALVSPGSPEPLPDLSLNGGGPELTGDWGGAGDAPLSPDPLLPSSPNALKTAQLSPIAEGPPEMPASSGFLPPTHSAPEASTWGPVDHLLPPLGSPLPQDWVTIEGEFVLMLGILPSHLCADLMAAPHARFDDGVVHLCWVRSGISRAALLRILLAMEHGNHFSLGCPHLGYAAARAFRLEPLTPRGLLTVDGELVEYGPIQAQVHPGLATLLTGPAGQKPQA

T2 sequence (Q9NYA1 whole entry, the tested form may be a part): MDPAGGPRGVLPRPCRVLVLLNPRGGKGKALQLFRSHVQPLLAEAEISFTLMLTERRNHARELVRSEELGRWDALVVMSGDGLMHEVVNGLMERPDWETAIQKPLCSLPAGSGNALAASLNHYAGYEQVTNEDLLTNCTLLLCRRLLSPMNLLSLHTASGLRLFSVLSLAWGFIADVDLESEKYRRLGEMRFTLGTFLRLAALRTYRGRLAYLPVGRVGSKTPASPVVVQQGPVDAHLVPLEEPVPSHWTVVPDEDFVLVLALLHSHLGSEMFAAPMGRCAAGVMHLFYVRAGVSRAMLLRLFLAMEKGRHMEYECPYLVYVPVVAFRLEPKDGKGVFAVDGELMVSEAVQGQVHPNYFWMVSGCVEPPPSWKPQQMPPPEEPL
Sphingosine kinase 1 (Mus musculus, UniProt Q8CI15), sequence (Q8CI15 whole entry): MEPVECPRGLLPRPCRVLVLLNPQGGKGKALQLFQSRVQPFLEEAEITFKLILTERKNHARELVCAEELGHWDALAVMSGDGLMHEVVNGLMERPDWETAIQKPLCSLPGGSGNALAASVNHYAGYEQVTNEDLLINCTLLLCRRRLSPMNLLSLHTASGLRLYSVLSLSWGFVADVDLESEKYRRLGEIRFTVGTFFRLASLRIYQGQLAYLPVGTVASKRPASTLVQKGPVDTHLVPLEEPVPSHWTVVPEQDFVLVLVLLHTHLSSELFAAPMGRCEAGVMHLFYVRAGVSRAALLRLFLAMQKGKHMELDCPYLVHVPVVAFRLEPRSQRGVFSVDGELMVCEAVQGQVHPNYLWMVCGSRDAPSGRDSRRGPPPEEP

Structure (SMILES): CCCCCCCCCCCCCC[C@@H]1OC[C@@H](N)[C@@H]1O
IC50 [3]: 1.6 µM
IC50 [4]: 5.3 µM

Structure (SMILES): CCCCCCCCCCCCCC[C@@H]1OC[C@H](N)[C@@H]1O
IC50 [5]: 6.6 µM
IC50 [6]: 4.6 µM

Structure (SMILES): CCCCCCCCCCCCC/C=C/[C@H](O)[C@@H](CO)N(C)C
Ki [1]: 12 µM

Structure (SMILES): N[C@H]1CN[C@H](CCCCCCCCCCCOC2CCOCC2)[C@H]1O
IC50 [7]: 0.8 µM

Structure (SMILES): CCCCCCCCCCCCC/C=C/C(O)C(CO)NC(=N)N (centres undefined)
Ki [1]: 0.3 µM
Ki [2]: 0.04 µM

Structure (SMILES): CCCOCCCCCCCCCC[C@@H]1OC[C@@H](N)[C@@H]1O
IC50 [10]: 3.2 µM
IC50 [7]: > 30 µM

Structure (SMILES): CCCCCCCCOc1ccc2cc(-c3noc(C4[C@@H](O)CCN4C(=N)N)n3)ccc2c1 (single isomer, unassigned)
Ki [11]: 20 µM
Ki [12]: 1 µM

Structure (SMILES): CCCCCCCCCCCCCC[C@H]1OC[C@H](N)[C@@H]1O [2-EPI JASPINE B]
IC50 [10]: 24.8 µM
IC50 [7]: 4.3 µM

Next, values leading:

Ki [1]: 8 µM
Structure (SMILES): Oc1ccc(Nc2nc(-c3ccc(Cl)cc3)cs2)cc1

Ki [2]: 0.3 µM
Structure (SMILES): CC(=O)N(C1=C(Cl)C(=O)c2ccccc2C1=O)C1CCCCC1

IC50 [8]: 3.1 µM
Structure (SMILES): COc1ccc2[nH]c(=O)c(/C=C/C(=O)c3ccc(Nc4nccc(-c5ccc6ccccc6c5)n4)cc3)cc2c1

IC50 [9]: 71 µM
IC50 [8]: > 650 µM
Structure (SMILES): Brc1cc2c(c3ccccc13)N1OC(C2)CC1CCc1ccccc1 (centres undefined)
